Assay results from article PMC1831776, “Structure and characterization of a novel chicken biotin-binding protein A (BBP-A)” (BMC Structural Biology, 2007).
Marks after values point to notes of the source that are not given here.

How the values were obtained:
[1] = molecular target: chicken biotin-binding protein A expressed in bacteria (bBBP-A) (chicken); experiment: crystal structure; bBBP-A co-crystallised with BTN; two crystals, BBP-A - BTN (2.1 A, I4(1)22) and BBP-A - BSO (1.75 A, P2(1)2(1)2)
[2] = molecular target: chicken biotin-binding protein A expressed in bacteria (bBBP-A) (chicken); experiment: SEC; gel filtration, Superdex 200 10/300 GL, 50 mM NaPO4, 650 mM NaCl, pH 7.0; samples without BTN and after 15 min with 0.22 mM BTN; apparent masses from standard proteins
[3] = molecular target: chicken biotin-binding protein A expressed in bacteria (bBBP-A) (chicken); experiment: SDS-PAGE-based thermostability assay; samples saturated with BTN; acetylated in vitro, thermal treatment 20 min in sample buffer with SDS and 2-mercaptoethanol, Coomassie staining
[4] = molecular target: chicken biotin-binding protein A expressed in insect cells (iBBP-A) (chicken); experiment: SEC; gel filtration, Superdex 200 10/300 GL, 50 mM NaPO4, 650 mM NaCl, pH 7.0; samples without BTN and after 15 min with 0.22 mM BTN; apparent masses from standard proteins
[5] = molecular target: chicken biotin-binding protein A expressed in insect cells (iBBP-A) (chicken); experiment: SDS-PAGE-based thermostability assay; samples saturated with BTN; acetylated in vitro, thermal treatment 20 min in sample buffer with SDS and 2-mercaptoethanol, Coomassie staining
[6] = Dissociation of fluorescent biotin conjugate ArcDia BF560-biotin from the proteins; format: binding; details: 25°C
Protocol: (§1) The dissociation rate of [^3H]biotin from BBP-A was measured using a competitive dissociation assay (Figure 9; Table 2).
The dissociation rate of the fluorescent biotin conjugate ArcDia™ BF560-biotin (ArcDia Ltd., Turku, Finland) was measured as reported previously. The measurements were made at 25°C in 50 mM NaPO4 buffer (pH 7.0) containing 650 mM NaCl using a PerkinElmer LS55 luminometer.

[7] = Differential scanning calorimetry of the proteins; format: physicochemical, chicken; details: with BTN
Protocol: (§2) Differential scanning analysis was performed in 50 mM NaPO4 buffer (pH 7.0) containing 100 mM NaCl as previously described. The concentration of the analyzed proteins was between 0.2 and 0.6 mg/ml. In samples containing a ligand, the molar ligand concentration was three times as high as the protein subunit concentration. The samples were scanned from 25 to 130°C at a rate of 0.92°C/min.

[8] = parameters: method as in PMID 15324300; details: ref [30], cited from earlier work; for Tr +BTN: with BTN; for Tr -BTN: without BTN
[9] = without BTN; ref [33]; cited from earlier work
bBBP-A [10] = molecular target: T1, bBBP-A (Gallus gallus, UniProt E1BTQ4); experiment: Fluorescence spectroscopy protein-ligand dissociation analysis; format: binding, chicken
T1 sequence (E1BTQ4 22-146): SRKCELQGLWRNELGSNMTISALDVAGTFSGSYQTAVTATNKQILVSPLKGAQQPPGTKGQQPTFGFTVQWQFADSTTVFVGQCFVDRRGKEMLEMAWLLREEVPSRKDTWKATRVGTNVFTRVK
Protocol: Fluorescence spectroscopy was also used to measure the rate of protein-ligand dissociation. These experiments were made at 40°C in order to measure the dissociation events within an experimentally applicable timescale. […] The measured spectral properties of each protein-ligand complex (i.e. the emission intensity of the protein-ligand complex) were used to create a single-phase dissociation model, which was fitted to the data.

bBBP-A [11] = molecular target: T1, bBBP-A; experiment: [3H]-biotin competitive dissociation analysis (ligand from BBP-A); format: binding, chicken; details: 40°C, [3H]-biotin dissociation analysis, excess of BTN as competitive ligand
Protocol: as §1
The dissociation rate of [^3H]biotin (Amersham) was measured at various temperatures with a competition assay as described previously. Measurements were carried out in 50 mM NaPO4 buffer containing 100 mM NaCl.

chicken AVD [12] = molecular target: T2, chicken AVD (Gallus gallus, UniProt P02701); experiment: Isothermal titration calorimetry, AVD; format: binding; details: 25°C
T2 construct: AVD isolated from chicken egg-white (wtAVD; Belovo S. A., Bastogne, Belgium); purchased Belovo S. A., Bastogne, Belgium; host or cells: chicken egg-white
T2 sequence (P02701 25-152): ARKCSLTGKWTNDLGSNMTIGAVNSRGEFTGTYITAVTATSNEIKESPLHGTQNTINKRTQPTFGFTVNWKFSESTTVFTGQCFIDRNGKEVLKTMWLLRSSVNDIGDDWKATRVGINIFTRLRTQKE
Protocol: (§3) The energetics of biotin binding was determined with a VP-ITC (MicroCal™) Isothermal Titration Calorimeter. Measurements were performed at 25°C in degassed 50 mM NaPO4 buffer (pH 7.0) containing 100 mM NaCl. In order to calculate the enthalpies of binding (ΔH) for BBP-A and AVD, the cell used for measurements was filled with 30 μM protein solution. […] The data were analysed with Origin 7.0 software using the "One Set of Sites" method. The titration curve (heat change μcal/injection) resulting from the 15 injections was analysed by fitting the data to a nonlinear least square curve.

bBBP-A [13] = molecular target: T1, bBBP-A; experiment: Isothermal titration calorimetry, BBP-A; format: binding, chicken; details: for Enthalpy (ITC), BBP-A: 25°C
Protocol: as §3

chicken AVD [14] = molecular target: T2, chicken AVD; experiment: DSC of AVD in the presence of ligand; format: binding
Protocol: as §2

bBBP-A [15] = molecular target: T1, bBBP-A; experiment: DSC of BBP-A in the presence of ligand; format: binding, chicken
Protocol: as §2

BBP-A = molecular target: T3, BBP-A (Gallus gallus, UniProt E1BTQ4); experiment: Biotin-binding affinity of BBP-A; parameters: species or system chicken
T3 sequence (E1BTQ4 22-146): T1 sequence (E1BTQ4 22-146)
Protocol: Background The chicken genome contains a BBP-A gene showing similar characteristics to avidin family genes. In a previous study we reported that the BBP-A gene may encode a biotin-binding protein due to the high sequence similarity with chicken avidin, especially at regions encoding residues known to be located at the ligand-binding site of avidin.
as §1

bBBP-A [16] = molecular target: T1, bBBP-A; experiment: Intrinsic fluorescence emission spectra, BBP-A; format: binding, chicken; details: 100 nM protein, 200 nM ligand, 25°C, excitation 280 nm
Protocol: (§4) The ligand-induced changes to the emission spectra of bBBP-A and wtAVD were studied, too (Figure 11). […] Compared to the ligand-free proteins, for each of the ligand-protein combinations the maximum in the emission spectra moved towards the shorter blue wavelengths.
(§5) In order to study the intrinsic fluorescence of the proteins, the emission spectra of bBBP-A and wtAVD in 50 mM NaPO4 buffer (pH 7.0) containing 650 mM NaCl were measured using a PerkinElmer LS55 spectrofluorometer and excitation at 280 nm (slit 2.5 nm). During the analysis, protein solutions (100 nM) were continuously mixed using an integrated magnetic stirrer and maintained at 25°C using a circulating water bath.

wtAVD = molecular target: T4, wtAVD (Gallus gallus, UniProt P02701); experiment: Intrinsic fluorescence emission spectra, AVD; format: binding, chicken; details: 100 nM protein, 200 nM ligand, 25°C, excitation 280 nm
T4 construct: AVD isolated from chicken egg-white (wtAVD; Belovo S. A., Bastogne, Belgium); purchased Belovo S. A., Bastogne, Belgium; host or cells: chicken egg-white
T4 sequence (P02701 25-152): as above
Protocol: as §4, §5

AVD = experiment: Dissociation of BSO (fluorometric) versus BTN (radiobiotin) from AVD; format: binding, chicken; details: 50°C; BSO fluorometric analysis, BTN radiobiotin assay
[17] = 40°C, fluorescence spectroscopic analysis, excess of BTN as competitive ligand

chicken biotin-binding protein A expressed in bacteria (bBBP-A) (natural protein)
stoichiometry N [1]: 4
stoichiometry N [2]: 4
stoichiometry N [3]: 4

chicken biotin-binding protein A expressed in insect cells (iBBP-A) (natural protein)
stoichiometry N [4]: 4
stoichiometry N [5]: 4

AVD: AVD isolated from chicken egg-white (Belovo S. A.), control protein
kdiss, dissociation of fluorescent BTN [6]: 2.0 10^-5 s^-1
Release 1 h, dissociation of fluorescent BTN [6]: 10%
Tm +BTN (DSC) [7]: 117.0 °C
Tr +BTN [8]: 90^b °C
Tr -BTN [8]: 60^b °C
Tm -BTN (DSC) [9]: 83.5^c °C

O=C(O)CCCC[C@@H]1SC[C@@H]2NC(=O)N[C@@H]21 [BTN, D-biotin]
kdiss from BBP-A (bBBP-A [10]): 5.4^b (4.4^c) × 10^-4 s^-1
kdiss from BBP-A (bBBP-A [11]): 5.4^b (4.4^c) × 10^-4 s^-1
Enthalpy (ITC), AVD (chicken AVD [12]): -22.6 ± 0.1 kcal/mol
Kd (bBBP-A [13]): < 1 nM
Enthalpy (ITC), BBP-A (bBBP-A [13]): -20.5 ± 0.1 kcal/mol
Tm (DSC), AVD (chicken AVD [14]): 117.0 ± 0.7 °C
Tm (DSC), BBP-A (bBBP-A [15]): 103.4 ± 0.1 °C
affinity of BBP-A for biotin, times lower than that of chicken avidin (BBP-A): about 50 times
ligand-induced change of emission intensity of BBP-A (bBBP-A [16]): enhanced the emission intensity
ligand-induced change of emission intensity of AVD (wtAVD): decreased the emission intensity

O=C(O)CCCC[C@H]1[C@H]2NC(=O)N[C@H]2CS1(=O)=O [D-biotin sulfone]
kdiss from BBP-A (bBBP-A [10]; [17]): 3.3^a × 10^-4 s^-1
Enthalpy (ITC), AVD (chicken AVD [12]): -25.1 ± 0.1 kcal/mol
Enthalpy (ITC), BBP-A (bBBP-A [13]): -21.4 ± 0.1 kcal/mol
Tm (DSC), AVD (chicken AVD [14]): 117.0 ± 0.0 °C
Tm (DSC), BBP-A (bBBP-A [15]): 101.4 ± 0.2 °C
ligand-induced change of emission intensity of BBP-A (bBBP-A [16]): enhanced the emission intensity
ligand-induced change of emission intensity of AVD (wtAVD): increased the emission intensity

bAVD: AVD produced in E. coli, control protein
kdiss, dissociation of fluorescent BTN [6]: 1.1 10^-5 s^-1
Release 1 h, dissociation of fluorescent BTN [6]: 5%
Tr +BTN [8]: 90^b °C
Tr -BTN [8]: 60^b °C

O=C(O)CCCC[C@H]1[C@H]2NC(=O)N[C@H]2C[S+]1[O-] (stereo partly drawn) [BSO, D-biotin D-sulfoxide]
kdiss from BBP-A (bBBP-A [10]; [17]): 1.3^a × 10^-4 s^-1
Enthalpy (ITC), AVD (chicken AVD [12]): -29.3 ± 0.1 kcal/mol
Enthalpy (ITC), BBP-A (bBBP-A [13]): -25.9 ± 0.1 kcal/mol
Tm (DSC), AVD (chicken AVD [14]): 116.9 ± 0.2 °C
Tm (DSC), BBP-A (bBBP-A [15]): 100.4 ± 0.2 °C
affinity of BBP-A for BSO compared with BTN (BBP-A): even higher than the affinity for BTN
ligand-induced change of emission intensity of BBP-A (bBBP-A [16]): enhanced the emission intensity
ligand-induced change of emission intensity of AVD (wtAVD): decreased the emission intensity
dissociation rate from AVD, times higher in comparison to BTN (AVD): more than 20 times
